# Data reported in patent US20250320193A1, “OXOISOINDOLINYL SUBSTITUTED PIPERIDINEDIONE DERIVATIVE AND USE THEREOF” (GLUETACS THERAPEUTICS (SHANGHAI) CO., LTD., priority 2022, published 2025).
# What was measured:
# Format in all cases: cell-based
# IKZF1 = IKZF1 (Homo sapiens (Human), UniProt Q13422+Q96SW2); test: Western blot, substrate protein expression in hPBMC: IKZF1; conditions: for substrate protein remaining % IKZF1: hPBMC, compound 500 nM, 24 hours, Western blot
# Experimental: (§1) The effect of the compounds of the present disclosure on the expression of target proteins in cells was detected using conventional Western blot analysis.
# (§2) Human peripheral blood mononuclear cells (hPBMCs) at a density of 1×10^6 cells/mL were thawed according to the PBMC Recovery Protocol (Milecell Biotechnologies Inc, Shanghai). […] After 24 hours of compounds treatment, cells were harvested and lysed in RIPA protein lysate containing phosphatase inhibitors on ice for 30-60 min, followed by centrifugation. The supernatant was aspirated as the extracted total cell protein. The protein concentration of the supernatant was determined using the conventional BCA (Bicinchoninic Acid) assay. The supernatant was then mixed with 4× SDS sample loading buffer, denatured at 95° C. for 5 minutes, and then subjected to SDS-PAGE electrophoresis on a polyacrylamide gel. Proteins were then transferred to a nitrocellulose (NC) membrane, blocked at room temperature for 1-2 h, and processed for antibody incubation and detection according to the manufacturer's instructions (Cell Signaling Technology).
# (§3) Half-Maximal Degradation Concentration value (the drug concentration required for degrading proteins by 50%, abbreviated as DC50) reads method: comparing the grayscale values of Western blot bands from drug-treated samples (protein degrader compounds) with those from blank (DMSO-treated) controls, and identifying the drug concentration range at which the grayscale value is half that of the DMSO-treated control bands.
# (§4) DC50 values can be calculated using ImageJ software to measure grayscale values of Western blot bands from drug-treated samples. The relationship curve between drug concentration and grayscale values is fitted to estimate the drug concentration corresponding to half the grayscale value.
# (§5) Target protein remaining (%) refers to the percentage of target protein remaining in hPBMC cells after treatment with protein degrader compounds.
# (§6) Calculation method for protein remaining (%): Use ImageJ software to measure grayscale values of Western blot bands from drug (protein degrader)-treated samples. The grayscale value of drug-treated bands is divided by that of internal control protein bands, and the resulting quotient is normalized to obtain the relative percentage of remaining target protein after protein degrader treatment.
# (§7) Target protein degradation rate (%)=100%-target protein remaining (%).
# IKZF3 = IKZF3 (Homo sapiens (Human), UniProt Q96SW2+Q9UKT9); test: Western blot, substrate protein expression in hPBMC: IKZF3; conditions: for substrate protein remaining % IKZF3: hPBMC, compound 500 nM, 24 hours, Western blot
# Experimental: as §1, §2, §3, §4, §5, §6, §7
# GSPT1 = GSPT1 (Homo sapiens (Human), UniProt P15170+Q96SW2); test: Western blot, substrate protein expression in hPBMC: GSPT1; conditions: for substrate protein remaining % GSPT1: hPBMC, compound 500 nM, 24 hours, Western blot
# Experimental: as §1, §2, §3, §4, §5, §6, §7
# IKZF1, sequence (Q13422 whole entry): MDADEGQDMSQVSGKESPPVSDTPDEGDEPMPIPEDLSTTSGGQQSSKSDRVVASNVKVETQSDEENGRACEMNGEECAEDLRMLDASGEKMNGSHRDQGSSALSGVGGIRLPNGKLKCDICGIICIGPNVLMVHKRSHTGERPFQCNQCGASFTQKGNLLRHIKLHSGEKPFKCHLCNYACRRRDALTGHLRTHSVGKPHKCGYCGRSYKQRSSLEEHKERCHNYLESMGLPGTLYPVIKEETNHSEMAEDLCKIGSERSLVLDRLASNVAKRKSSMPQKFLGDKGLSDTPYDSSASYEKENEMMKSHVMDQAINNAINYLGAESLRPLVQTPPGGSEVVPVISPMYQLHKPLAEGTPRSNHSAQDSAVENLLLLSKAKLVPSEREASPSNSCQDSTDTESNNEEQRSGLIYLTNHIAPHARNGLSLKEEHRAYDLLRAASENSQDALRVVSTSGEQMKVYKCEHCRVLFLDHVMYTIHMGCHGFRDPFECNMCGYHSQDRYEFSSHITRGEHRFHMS
# IKZF1, sequence (Q96SW2 whole entry): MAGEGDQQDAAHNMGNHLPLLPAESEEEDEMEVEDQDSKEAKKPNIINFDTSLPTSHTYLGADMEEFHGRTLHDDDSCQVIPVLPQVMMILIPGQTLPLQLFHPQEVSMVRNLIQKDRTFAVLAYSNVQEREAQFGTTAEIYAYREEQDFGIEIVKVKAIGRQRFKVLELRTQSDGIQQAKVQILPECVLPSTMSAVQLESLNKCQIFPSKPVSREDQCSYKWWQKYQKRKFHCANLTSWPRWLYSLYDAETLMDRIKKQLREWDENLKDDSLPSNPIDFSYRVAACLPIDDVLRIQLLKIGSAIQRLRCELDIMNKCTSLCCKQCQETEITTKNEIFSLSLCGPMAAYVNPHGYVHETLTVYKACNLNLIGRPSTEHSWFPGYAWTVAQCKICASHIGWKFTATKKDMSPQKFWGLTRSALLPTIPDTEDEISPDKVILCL
# IKZF1, sequence (Q16531 whole entry partner): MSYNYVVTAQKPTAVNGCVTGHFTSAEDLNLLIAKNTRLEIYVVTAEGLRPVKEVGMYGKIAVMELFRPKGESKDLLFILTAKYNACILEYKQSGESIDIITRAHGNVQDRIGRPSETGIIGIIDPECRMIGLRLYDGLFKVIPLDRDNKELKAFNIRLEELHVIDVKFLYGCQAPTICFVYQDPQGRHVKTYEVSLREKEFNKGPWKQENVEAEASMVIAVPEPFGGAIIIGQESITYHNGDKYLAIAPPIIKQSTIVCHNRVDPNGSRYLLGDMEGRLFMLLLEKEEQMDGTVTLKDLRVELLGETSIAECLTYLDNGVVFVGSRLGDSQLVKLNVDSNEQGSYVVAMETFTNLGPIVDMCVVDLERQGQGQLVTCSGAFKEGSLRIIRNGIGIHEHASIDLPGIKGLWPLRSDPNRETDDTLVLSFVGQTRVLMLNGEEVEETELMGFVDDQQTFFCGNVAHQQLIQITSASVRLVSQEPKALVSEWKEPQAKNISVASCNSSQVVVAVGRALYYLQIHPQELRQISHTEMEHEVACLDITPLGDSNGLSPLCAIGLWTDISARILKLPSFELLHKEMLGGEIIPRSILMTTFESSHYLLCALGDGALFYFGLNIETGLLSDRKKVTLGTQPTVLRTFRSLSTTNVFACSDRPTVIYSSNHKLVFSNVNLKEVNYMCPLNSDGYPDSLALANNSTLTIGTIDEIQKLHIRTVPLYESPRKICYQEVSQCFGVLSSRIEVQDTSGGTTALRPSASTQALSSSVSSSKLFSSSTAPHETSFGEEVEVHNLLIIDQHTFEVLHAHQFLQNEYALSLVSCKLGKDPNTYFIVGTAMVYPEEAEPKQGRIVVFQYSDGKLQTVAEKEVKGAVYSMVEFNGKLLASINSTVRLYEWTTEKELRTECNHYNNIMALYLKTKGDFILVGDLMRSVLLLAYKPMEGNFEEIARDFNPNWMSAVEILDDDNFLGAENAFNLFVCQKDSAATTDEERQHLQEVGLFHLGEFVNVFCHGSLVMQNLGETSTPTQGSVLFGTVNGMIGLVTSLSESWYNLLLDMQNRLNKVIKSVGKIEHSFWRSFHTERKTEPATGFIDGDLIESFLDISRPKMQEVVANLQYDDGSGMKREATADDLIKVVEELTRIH
# GSPT1, sequence (P15170 whole entry): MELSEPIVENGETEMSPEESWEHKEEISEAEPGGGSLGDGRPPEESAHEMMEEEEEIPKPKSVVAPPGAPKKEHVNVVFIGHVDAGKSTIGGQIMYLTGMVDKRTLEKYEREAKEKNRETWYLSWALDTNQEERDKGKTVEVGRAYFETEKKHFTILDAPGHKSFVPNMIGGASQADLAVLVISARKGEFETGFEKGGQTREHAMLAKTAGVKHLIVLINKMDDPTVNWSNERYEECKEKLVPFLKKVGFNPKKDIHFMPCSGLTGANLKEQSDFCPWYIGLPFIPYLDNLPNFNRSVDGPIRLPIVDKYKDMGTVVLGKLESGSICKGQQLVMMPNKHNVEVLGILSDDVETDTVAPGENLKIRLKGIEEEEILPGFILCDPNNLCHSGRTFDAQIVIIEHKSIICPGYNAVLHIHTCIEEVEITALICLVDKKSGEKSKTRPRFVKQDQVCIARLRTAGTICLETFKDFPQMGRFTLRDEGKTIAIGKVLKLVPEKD
# GSPT1, sequence (Q96SW2 whole entry): as the sequence (Q96SW2 whole entry) above
# GSPT1, sequence (Q16531 whole entry partner): as the sequence (Q16531 whole entry partner) above
# IKZF3, sequence (Q9UKT9 whole entry): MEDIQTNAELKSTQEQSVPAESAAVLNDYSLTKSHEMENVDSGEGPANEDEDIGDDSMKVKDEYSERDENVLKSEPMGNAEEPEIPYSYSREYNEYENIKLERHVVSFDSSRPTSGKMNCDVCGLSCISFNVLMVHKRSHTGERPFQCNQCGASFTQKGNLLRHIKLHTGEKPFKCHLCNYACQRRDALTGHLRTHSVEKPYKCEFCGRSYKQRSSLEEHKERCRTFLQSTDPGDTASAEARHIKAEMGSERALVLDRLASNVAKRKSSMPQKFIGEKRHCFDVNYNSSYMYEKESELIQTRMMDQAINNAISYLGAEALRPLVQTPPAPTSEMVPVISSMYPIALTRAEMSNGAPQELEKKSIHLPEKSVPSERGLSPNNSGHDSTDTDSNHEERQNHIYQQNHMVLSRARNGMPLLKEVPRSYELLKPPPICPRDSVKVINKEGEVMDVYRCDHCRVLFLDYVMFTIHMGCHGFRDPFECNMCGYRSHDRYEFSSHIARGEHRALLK
# IKZF3, sequence (Q96SW2 whole entry): as the sequence (Q96SW2 whole entry) above
# IKZF3, sequence (Q16531 whole entry partner): as the sequence (Q16531 whole entry partner) above
smiles,measurement,setting,value
"O=C1CCC(N2C(=O)c3ccc(CN4CCCN(C(c5ccccc5)c5ccccc5)CC4)cc3C2=O)C(=O)N1 (stereo not drawn) [GT-05739, 5-((4-benzhydryl-1,4-diazepan-1-yl)methyl)-2-(2,6-dioxopiperidin-3-yl) isoindoline-1,3-dione]",substrate protein remaining % IKZF1,IKZF1,B (B represents substrate protein remaining % > 50%)
same,substrate protein remaining % IKZF3,IKZF3,B (B represents substrate protein remaining % > 50%)
same,substrate protein remaining % GSPT1,GSPT1,A (A represents 0% ≤ substrate protein remaining % ≤ 50%)
"O=C1CCC(N2C(=O)c3ccc(CN4CCC(N(c5ccccc5)c5ccccn5)CC4)cc3C2=O)C(=O)N1 (stereo not drawn) [GT-05742, 2-(2,6-dioxopiperidin-3-yl)-5-((4-(phenyl(pyridin-2-yl)amino)piperidin-1-yl)methyl) isoindoline-1,3-dione]",substrate protein remaining % IKZF1,IKZF1,A (A represents 0% ≤ substrate protein remaining % ≤ 50%)
same,"concentration at which IKZF1 protein was significantly degraded (Western blot, FIG. 1)",IKZF1; hPBMCs,below 50 nM
same,substrate protein remaining % IKZF3,IKZF3,A (A represents 0% ≤ substrate protein remaining % ≤ 50%)
same,"concentration at which IKZF3 protein was significantly degraded (Western blot, FIG. 1)",IKZF3; hPBMCs,below 50 nM
same,substrate protein remaining % GSPT1,GSPT1,A (A represents 0% ≤ substrate protein remaining % ≤ 50%)
same,"concentration at which GSPT1 protein was clearly/significantly degraded (Western blot, FIG. 1)",GSPT1; hPBMCs,below 50 nM
"O=C1CCC(N2Cc3ccc(C(=O)N4CCN(C(c5ccccc5)c5ccccc5)CC4)cc3C2=O)C(=O)N1 (stereo not drawn) [GT-05851, 3-(6-(4-benzhydrylpiperazine-1-carbonyl)-1-oxoisoindolin-2-yl)piperidine-2,6-dione]",substrate protein remaining % IKZF1,IKZF1,A (A represents 0% ≤ substrate protein remaining % ≤ 50%)
same,substrate protein remaining % IKZF3,IKZF3,B (B represents substrate protein remaining % > 50%)
same,substrate protein remaining % GSPT1,GSPT1,A (A represents 0% ≤ substrate protein remaining % ≤ 50%)
"O=C1CCC(N2C(=O)c3ccc(C(=O)N4CCN(C(c5ccccn5)c5ccccn5)CC4)cc3C2=O)C(=O)N1 (stereo not drawn) [GT-05880, 5-(4-(di(pyridin-2-yl)methyl)piperazine-1-carbonyl)-2-(2,6-dioxopiperidin-3-yl) isoindoline-1,3-dione]",substrate protein remaining % IKZF1,IKZF1,B (B represents substrate protein remaining % > 50%)
same,substrate protein remaining % IKZF3,IKZF3,B (B represents substrate protein remaining % > 50%)
same,substrate protein remaining % GSPT1,GSPT1,A (A represents 0% ≤ substrate protein remaining % ≤ 50%)
"O=C1CCC(N2C(=O)c3ccc(C(=O)N4CCN(C(c5ccc(F)cc5)c5ccc(F)cc5)CC4)cc3C2=O)C(=O)N1 (stereo not drawn) [GT-05885, 5-(4-(bis(4-fluorophenyl)methyl)piperazine-1-carbonyl)-2-(2,6-dioxopiperidin-3-yl) isoindoline-1,3-dione]",substrate protein remaining % IKZF1,IKZF1,B (B represents substrate protein remaining % > 50%)
same,substrate protein remaining % IKZF3,IKZF3,B (B represents substrate protein remaining % > 50%)
same,substrate protein remaining % GSPT1,GSPT1,A (A represents 0% ≤ substrate protein remaining % ≤ 50%)
"O=C1CCC(N2C(=O)c3ccc(C(=O)N4CCN(C(c5ccc(Cl)cc5)c5ccc(Cl)cc5)CC4)cc3C2=O)C(=O)N1 (stereo not drawn) [GT-05890, 5-(4-(bis(4-chlorophenyl)methyl)piperazine-1-carbonyl)-2-(2,6-dioxopiperidin-3-yl) isoindoline-1,3-dione]",substrate protein remaining % IKZF1,IKZF1,B (B represents substrate protein remaining % > 50%)
same,substrate protein remaining % IKZF3,IKZF3,B (B represents substrate protein remaining % > 50%)
same,substrate protein remaining % GSPT1,GSPT1,A (A represents 0% ≤ substrate protein remaining % ≤ 50%)
"O=C1CCC(N2Cc3cc(C(=O)N4C5CC4CN(C(c4ccccc4)c4ccccc4)C5)ccc3C2=O)C(=O)N1 (stereo not drawn) [GT-05891, 3-(5-(3-benzhydryl-3,6-diazabicyclo[3.1.1]heptane-6-carbonyl)-1-oxoisoindolin-2-yl)piperidine-2,6-dione]",substrate protein remaining % IKZF1,IKZF1,B (B represents substrate protein remaining % > 50%)
same,substrate protein remaining % IKZF3,IKZF3,B (B represents substrate protein remaining % > 50%)
same,substrate protein remaining % GSPT1,GSPT1,A (A represents 0% ≤ substrate protein remaining % ≤ 50%)
"O=C1CCC(N2Cc3cc(C(=O)N4CCCN(C(c5ccccc5)c5ccccc5)CC4)ccc3C2=O)C(=O)N1 (stereo not drawn) [GT-05892, 3-(5-(4-benzhydryl-1,4-diazepane-1-carbonyl)-1-oxoisoindolin-2-yl)piperidine-2,6-dione]",substrate protein remaining % IKZF1,IKZF1,B (B represents substrate protein remaining % > 50%)
same,substrate protein remaining % IKZF3,IKZF3,B (B represents substrate protein remaining % > 50%)
same,substrate protein remaining % GSPT1,GSPT1,A (A represents 0% ≤ substrate protein remaining % ≤ 50%)
"O=C1CCC(N2C(=O)c3ccc(CN4CCN(C5c6ccccc6-c6ccccc65)CC4)cc3C2=O)C(=O)N1 (stereo not drawn) [GT-05908, 5-((4-(9H-fluoren-9-yl)piperazin-1-yl)methyl)-2-(2,6-dioxopiperidin-3-yl) isoindoline-1,3-dione]",substrate protein remaining % IKZF1,IKZF1,A (A represents 0% ≤ substrate protein remaining % ≤ 50%)
same,substrate protein remaining % IKZF3,IKZF3,A (A represents 0% ≤ substrate protein remaining % ≤ 50%)
same,substrate protein remaining % GSPT1,GSPT1,A (A represents 0% ≤ substrate protein remaining % ≤ 50%)
"O=C1CCC(N2C(=O)c3ccc(C(=O)N4CCC(N(c5ccccc5)c5ccccn5)CC4)cc3C2=O)C(=O)N1 (stereo not drawn) [GT-05925, 2-(2,6-dioxopiperidin-3-yl)-5-(4-(phenyl(pyridin-2-yl)amino)piperidine-1-carbonyl) isoindoline-1,3-dione]",substrate protein remaining % IKZF1,IKZF1,B (B represents substrate protein remaining % > 50%)
same,substrate protein remaining % IKZF3,IKZF3,B (B represents substrate protein remaining % > 50%)
same,substrate protein remaining % GSPT1,GSPT1,A (A represents 0% ≤ substrate protein remaining % ≤ 50%)
"O=C1CCC(N2C(=O)c3ccc(C(=O)N4CCC(N(c5ccccc5)c5ccccc5)CC4)cc3C2=O)C(=O)N1 (stereo not drawn) [GT-05928, 2-(2,6-dioxopiperidin-3-yl)-5-(4-(diphenylamino)piperidine-1-carbonyl) isoindoline-1,3-dione]",substrate protein remaining % IKZF1,IKZF1,B (B represents substrate protein remaining % > 50%)
same,substrate protein remaining % IKZF3,IKZF3,B (B represents substrate protein remaining % > 50%)
same,substrate protein remaining % GSPT1,GSPT1,A (A represents 0% ≤ substrate protein remaining % ≤ 50%)
"O=C1CCC(N2C(=O)c3cc(F)c(N4C5CCC4CN(C(c4ccccc4)c4ccccc4)C5)cc3C2=O)C(=O)N1 (stereo not drawn) [GT-05932, 5-(3-benzhydryl-3,8-diazabicyclo[3.2.1]octan-8-yl)-2-(2,6-dioxopiperidin-3-yl)-6-fluoroisoindoline-1,3-dione]",substrate protein remaining % IKZF1,IKZF1,B (B represents substrate protein remaining % > 50%)
same,substrate protein remaining % IKZF3,IKZF3,B (B represents substrate protein remaining % > 50%)
same,substrate protein remaining % GSPT1,GSPT1,A (A represents 0% ≤ substrate protein remaining % ≤ 50%)
"O=C1CCC(N2C(=O)c3cc(F)c(N4CC5CC(C4)N5C(c4ccccc4)c4ccccc4)cc3C2=O)C(=O)N1 (stereo not drawn) [GT-05934, 5-(6-benzhydryl-3,6-diazabicyclo[3.1.1]heptan-3-yl)-2-(2,6-dioxopiperidin-3-yl)-6-fluoroisoindoline-1,3-dione]",substrate protein remaining % IKZF1,IKZF1,B (B represents substrate protein remaining % > 50%)
same,substrate protein remaining % IKZF3,IKZF3,A (A represents 0% ≤ substrate protein remaining % ≤ 50%)
same,substrate protein remaining % GSPT1,GSPT1,A (A represents 0% ≤ substrate protein remaining % ≤ 50%)
"O=C1CCC(N2C(=O)c3ccc(N4C5CCC4CN(C(c4ccccc4)c4ccccc4)C5)cc3C2=O)C(=O)N1 (stereo not drawn) [GT-05937, 5-(3-benzhydryl-3,8-diazabicyclo[3.2.1]octan-8-yl)-2-(2,6-dioxopiperidin-3-yl) isoindoline-1,3-dione]",substrate protein remaining % IKZF1,IKZF1,B (B represents substrate protein remaining % > 50%)
same,substrate protein remaining % IKZF3,IKZF3,B (B represents substrate protein remaining % > 50%)
same,substrate protein remaining % GSPT1,GSPT1,A (A represents 0% ≤ substrate protein remaining % ≤ 50%)
"O=C1CCC(N2C(=O)c3ccc(N4C5CC4CN(C(c4ccccc4)c4ccccc4)C5)cc3C2=O)C(=O)N1 (stereo not drawn) [GT-05938, 5-(3-benzhydryl-3,6-diazabicyclo[3.1.1]heptan-6-yl)-2-(2,6-dioxopiperidin-3-yl) isoindoline-1,3-dione]",substrate protein remaining % IKZF1,IKZF1,B (B represents substrate protein remaining % > 50%)
same,substrate protein remaining % IKZF3,IKZF3,B (B represents substrate protein remaining % > 50%)
same,substrate protein remaining % GSPT1,GSPT1,A (A represents 0% ≤ substrate protein remaining % ≤ 50%)
"O=C1CCC(N2C(=O)c3ccc(CN4C[C@H]5C[C@@H]4CN5C(c4ccccc4)c4ccccc4)cc3C2=O)C(=O)N1 (stereo partly drawn) [GT-05959, 5-(((1R,4R)-5-benzhydryl-2,5-diazabicyclo[2.2.1]heptan-2-yl)methyl)-2-(2,6-dioxopiperidin-3-yl) isoindoline-1,3-dione]",substrate protein remaining % IKZF1,IKZF1,B (B represents substrate protein remaining % > 50%)
same,substrate protein remaining % IKZF3,IKZF3,B (B represents substrate protein remaining % > 50%)
same,substrate protein remaining % GSPT1,GSPT1,A (A represents 0% ≤ substrate protein remaining % ≤ 50%)
